BindingDB's records for doi:10.1016/j.chembiol.2007.06.006 (Northwestern University, 2007)

Target: T1, Progesterone receptor (Homo sapiens, UniProt P06401)
T1 sequence (P06401 whole entry): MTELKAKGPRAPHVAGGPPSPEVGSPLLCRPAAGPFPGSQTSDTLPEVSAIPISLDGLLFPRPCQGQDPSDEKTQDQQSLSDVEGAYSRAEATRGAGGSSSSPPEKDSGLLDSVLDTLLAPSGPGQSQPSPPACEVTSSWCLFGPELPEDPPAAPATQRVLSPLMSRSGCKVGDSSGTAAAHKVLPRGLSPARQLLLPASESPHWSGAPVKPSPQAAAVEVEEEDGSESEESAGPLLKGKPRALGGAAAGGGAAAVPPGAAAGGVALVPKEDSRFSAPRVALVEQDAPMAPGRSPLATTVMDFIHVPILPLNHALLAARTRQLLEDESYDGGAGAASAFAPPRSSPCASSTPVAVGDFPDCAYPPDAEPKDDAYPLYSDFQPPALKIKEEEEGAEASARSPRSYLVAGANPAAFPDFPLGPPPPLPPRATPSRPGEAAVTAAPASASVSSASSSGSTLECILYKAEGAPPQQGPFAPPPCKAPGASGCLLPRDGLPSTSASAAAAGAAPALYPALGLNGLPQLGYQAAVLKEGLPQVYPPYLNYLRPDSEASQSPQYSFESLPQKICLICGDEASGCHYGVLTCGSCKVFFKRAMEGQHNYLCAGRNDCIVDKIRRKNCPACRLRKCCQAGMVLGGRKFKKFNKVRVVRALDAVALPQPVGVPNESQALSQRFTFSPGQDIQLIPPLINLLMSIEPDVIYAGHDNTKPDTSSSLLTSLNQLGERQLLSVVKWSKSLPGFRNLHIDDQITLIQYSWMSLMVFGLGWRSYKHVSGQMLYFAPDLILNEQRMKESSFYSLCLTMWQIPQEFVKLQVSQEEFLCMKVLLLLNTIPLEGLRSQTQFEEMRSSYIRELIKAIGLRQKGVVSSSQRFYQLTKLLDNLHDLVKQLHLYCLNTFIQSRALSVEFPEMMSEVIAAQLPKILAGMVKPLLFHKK
Assay: Progesterone Receptor Binding Assay
Settings: 22 °C

Row | Compound | IC50 [nM]
1 | C[C@]12CCC(=O)C=C1CCC1C2CC[C@@]2(C)C1CC[C@@H]2C(=O)COCCCCCC[N+]12CC[N+]34CC[N+]56CC[N+]7(CC1)CC(=O)[O][Gd-4]2375([O]C(=O)C4)[O]C(=O)C6 (some centres not stated) [Steroid-Gd (III) conjugate, 2] | 460
2 | C[C@]12CCC(=O)C=C1CCC1C2CC[C@@]2(C)C1CC[C@@H]2C(=O)COCCCCCCNC(=S)Nc1ccc(CC2C[N+]34CC[N+]56CC[N+]78CC[N+]29CC(=O)[O][Gd-5]5739([O]C(=O)C6)([O]C(=O)C8)[O]C(=O)C4)cc1 (some centres not stated) [Steroid-Gd (III) conjugate, 3] | 860
